Data reported in patent US20230414628A1, “METHODS FOR TREATING DISEASES MEDIATED BY GLUTATHIONE PEROXIDASE 4” (priority 2022, published 2023).
Counter-ions that a name gives are not always drawn.

Each molecule was assayed on RAG01 (derived from fibroblasts of a patient diagnosed with SSMD) fibroblasts (assay: CellTiter-Glo concentration response in RAG01 fibroblasts). Settings: Homo sapiens, Fibroblast; RAG01 cell line; 72 hours incubation; CellTiter-Glo; percentage effect normalized to vehicle control; 10-point CRC from 10 μM; read-out: EC50.
Type: cell-based, human
Experimental: Compounds described herein were tested in three cell lines, RAG01 (derived from fibroblasts of a patient diagnosed with SSMD) fibroblasts, RAG02 (derived from fibroblasts of the patient's parent), and GM09503 (from supplier Corriell) (derived from a healthy donor) to each generate 10-point concentration response curves (CRC). The three cell lines were each thawed seven (7) days prior to seeding. The RAG01 cells were thawed in a medium supplemented with a-tocopherol. Cells were passaged four (4) days prior to the seeding. The α-tocopherol was removed from the RAG01 cells. Cells were then seeded at 900 cells per well in 384-well plates. Two replicates were prepared for two independent (replicate) experiments. All plates were then incubated with compounds described herein for 72 hours, prior to CellTiter-Glo assay. […] The assay was run using the CellTiter-Glo (Promega) following manufacturer's guidelines and luminescent spectrophotometric reading on PHERAstar FSX (BMG Labtech). A 0.1% dimethylsulfoxide (DMSO) was used as a blank (vehicle control); and a 1 μM Ferrostatin-1 was used as a control (CTRL).
The raw data was analyzed using Activity Base® software. The compounds were evaluated by efficacy (percentage effect) normalized to the vehicle control. The percentage effect (PE) was determined from the signal increase in comparison to the vehicle control according to the formula below: […]
The percentage effect values were then plotted against log concentration of the drug to generate a concentration response curve. The curves were fitted using a four-parameter fit, and curve tops and hillslopes were fixed where required and justified.
`CC1=C(C(=O)OC(C)C)C(c2cccc([N+](=O)[O-])c2)C(C(=O)OC2CN(C(c3ccccc3)c3ccccc3)C2)=C(N)N1` (centres unmarked) [compound 1, azelnidipine] was tested, and the EC50 was 3120 nM. `COC(=O)C1=C(C)NC(C)=C(C(=O)OCCN2CCN(C(c3ccccc3)c3ccccc3)CC2)C1c1cccc([N+](=O)[O-])c1` (centres unmarked) [compound 2, manidipine] gave an EC50 of 2900 nM. For `Cc1c(-c2ccc(O)cc2)n(Cc2ccc(OCCN3CCCCCC3)cc2)c2ccc(O)cc12` [compound 3, bazedoxifene], the EC50 was 240 nM. With `CN1CCN(c2ccc(C(=O)c3c(-c4ccc(O)cc4)sc4cc(O)ccc34)cc2)CC1` [compound 4, Y-134] the EC50 was 430 nM. In the case of `O=C(c1ccc(OCCN2CCCCC2)cc1)c1c(-c2ccc(O)cc2)sc2cc(O)ccc12` [compound 5, raloxifene], the EC50 is reported as 458 nM. `CCCCCS(=O)(=O)CCCCCCCCCCn1c(-c2ccc(O)cc2)c(C)c2cc(O)ccc21` [compound 6, ZK-164015] showed an EC50 of 1630 nM. In the case of `Brc1cc2c(cc1[C@@H]1Nc3ccccc3[C@@H]3C=CC[C@@H]31)OCO2` [compound 7, G-15], the EC50 is reported as 1660 nM. Work on `CC(C)=CCc1c(O)cc(O)c2c(=O)c(O)c(-c3ccc(C(F)(F)F)cc3)oc12` [compound 8, SNG1153] yielded an EC50 of 5510 nM. `COc1ccc(Nc2ccn(-c3ccccc3)n2)cc1` [compound 9, FPL 62064] showed an EC50 of 53 nM. For `O=C1c2ccccc2-n2c1nc1ccccc1c2=O` [compound 10, trypthanthrin], the EC50 was 180 nM. `C=CCc1ccc(O)c(-c2ccc(O)c(CC=C)c2)c1` [compound 12, honokiol] showed an EC50 of 1210 nM. In the case of `CC1(S(=O)(=O)O)CC(=O)c2ccccc2C1=O` (centres unmarked) [compound 13], the EC50 is reported as 1570 nM. With `COC1=C(OC)C(=O)C(CCCCCCCCCCO)=C(C)C1=O` [compound 14, idebenone] the EC50 was 1600 nM. In the case of `CC(c1cc2ccccc2s1)N(O)C(N)=O` (centres unmarked) [compound 15, Zileuton], the EC50 is reported as 1870 nM. `O=c1c(O)c(-c2ccc(O)cc2)oc2cc(O)cc(O)c12` [compound 16, kaempferol] was tested, and the EC50 was 3210 nM. `CCNCc1cc(C(C)(C)C)c(O)c(C(C)(C)C)c1` [compound 17, LY 231617] gave an EC50 of 7360 nM. For `CC(=O)O[C@]1(C(C)=O)CC[C@H]2[C@@H]3CCC4=CC(=O)CCC4=C3[C@@H](c3ccc(N(C)C)cc3)C[C@@]21C` [compound 18, ulipristal acetate], the EC50 was 2340 nM. In the case of `C#C[C@]1(O)CC[C@H]2[C@@H]3CCc4cc(O)ccc4[C@H]3CC[C@@]21C` [compound 19, ethinyl estradiol], the EC50 is reported as 4480 nM. In the case of `CC#C[C@]1(O)CC[C@H]2[C@@H]3CCC4=CC(=O)CCC4=C3[C@@H](c3ccc(N(C)C)cc3)C[C@@]21C` [compound 20, Mifepristone], the EC50 is reported as 2280 nM. Molecule `Oc1ccc(/C=C/c2cc(O)cc(O)c2)cc1` [compound 22, resveratrol] has an EC50 of 6810 nM. `COc1cc(/C=C/c2ccc(O)cc2)cc(OC)c1` [compound 23, pterostilbene] gave an EC50 of 1610 nM. `CC(Cc1ccc(O)c(O)c1)C(C)Cc1ccc(O)c(O)c1` (centres unmarked) [compound 24, Nordihydroguaiaretic acid] showed an EC50 of 2490 nM. Molecule `COc1cc(C[C@H](C)[C@H](C)Cc2ccc3c(c2)OCO3)ccc1O` [compound 25, macelignan] has an EC50 of 2860 nM. In the case of `CC(=O)Oc1c(C)cc(OCC(O)CNC(C)C)c(C)c1C` (centres unmarked) [compound 26, metipranolol], the EC50 is reported as 403 nM. Molecule `CC(C)NCC(O)COc1cccc2[nH]c3ccccc3c12` (centres unmarked) [compound 27, carazolol] has an EC50 of 3110 nM. `COc1ccccc1OCCNCC(O)COc1cccc2[nH]c3ccccc3c12` (centres unmarked) [compound 28, carvedilol] showed an EC50 of 4910 nM. `CCc1cc2c(cc1CC)CC(NC[C@H](O)c1ccc(O)c3[nH]c(=O)ccc13)C2` [compound 29, indacaterol] was tested, and the EC50 was 1390 nM. For `CC(=O)Oc1cc(C(C)C)c(OCCN(C)C)cc1C` [compound 30, Moxisylyte], the EC50 was 739 nM. `Cc1cc(C(C)(C)C)c(O)c(C)c1CC1=NCCN1` [compound 31, oxymetazoline] showed an EC50 of 1460 nM. `CN1CCN2c3c(cccc31)[C@@H]1CN(CCCC(=O)c3ccc(F)cc3)CC[C@@H]12` [compound 32, lumateperone] was tested, and the EC50 was 636 nM. For `Clc1ccc2c(c1)N=C(N1CCNCC1)c1ccccc1N2` [compound 34, desmethylclozapine], the EC50 was 2660 nM. `CC(C)(C)[C@@]1(O)CCN2C[C@@H]3c4ccccc4CCc4cccc(c43)[C@H]2C1` [compound 35, butaclamol] showed an EC50 of 2570 nM. `CN1CCc2cccc3c2[C@H]1Cc1ccc(O)c(O)c1-3` [compound 36, apomorphine] was tested, and the EC50 was 140 nM. Molecule `Oc1cc2c(cc1O)C(c1ccccc1)CNCC2` (centres unmarked) [compound 38, SKF-38,393] has an EC50 of 4310 nM. For `CCCN(C/C=C/I)C1CCc2ccc(O)cc2C1` (centres unmarked) [compound 40, 7-hydroxy-PIPAT], the EC50 was 2740 nM. Work on `CCCN(CCc1cccs1)[C@H]1CCc2c(O)cccc2C1` [compound 41, rotigotine] yielded an EC50 of 3950 nM. Molecule `CCOC(=O)Nc1ccc2c(c1)N(C(=O)CCN(CC)CC)c1ccccc1S2` [compound 42, ethacizine] has an EC50 of 478 nM. `CC(CN(C)C)CN1c2ccccc2Sc2ccc(C#N)cc21` (centres unmarked) [compound 43, cyamemazine] showed an EC50 of 1390 nM. Work on `OCCN1CCN(CCCN2c3ccccc3Sc3ccc(Cl)cc32)CC1` [compound 44, perphenazine] yielded an EC50 of 1410 nM. `O=C(CN1CCN(Cc2ccc3c(c2)OCO3)CC1)N1c2ccccc2Sc2ccccc21` [compound 46, fenoverine] showed an EC50 of 1500 nM. Work on `CC(CN(C)C)CN1c2ccccc2Sc2ccccc21` (centres unmarked) [compound 47, trimeprazine] yielded an EC50 of 1670 nM. For `CN1CCCC(CN2c3ccccc3Sc3ccccc32)C1` (centres unmarked) [compound 48, mepazine], the EC50 was 1840 nM. Work on `COc1ccc2c(c1)N(C[C@H](C)CN(C)C)c1ccccc1S2` [compound 49, Levomepromazine] yielded an EC50 of 3210 nM. `COc1ccc2cccc(N3CCN(CCNC(=O)c4ccc(F)cc4)CC3)c2c1` [compound 50, S-14,506] gave an EC50 of 928 nM. Molecule `Cc1[nH]c2ccc(Cl)cc2c1C1=CCNCC1` [compound 51, EMD-386088] has an EC50 of 1350 nM. In the case of `CCCN(C/C=C/I)C1CCc2cccc(O)c2C1` (centres unmarked) [compound 52, 8-hydroxy-PIPAT], the EC50 is reported as 2380 nM. Molecule `COc1ccc(CC2NCCc3c2[nH]c2ccc(C)cc32)c(Cl)c1OC` (centres unmarked) [compound 53, LY-266,097] has an EC50 of 2710 nM. `Oc1ccc2c3c1OC1c4c(c5ccccc5n4Cc4ccccc4)C[C@@]4(O)C(C2)N(CC2CC2)CC[C@]314` (some centres unmarked) [compound 54, N-Benzylnaltrindole HCl] was tested, and the EC50 was 381 nM. `Oc1ccc2c3c1O[C@H]1c4oc5ccccc5c4C[C@@]4(O)[C@@H](C2)N(CC2CC2)CC[C@]314` [compound 55, Naltriben] was tested, and the EC50 was 1320 nM. `C=C(C)CN1CC[C@]23c4c5ccc(O)c4OC2c2[nH]c4ccccc4c2C[C@@]3(O)[C@H]1C5` (some centres unmarked) [compound 56, SDM25N] showed an EC50 of 1410 nM. `Oc1ccc2c3c1O[C@H]1c4[nH]c5ccccc5c4C[C@@]4(O)[C@@H](C2)N(CC2CC2)CC[C@]314` [compound 57, Naltrindole] gave an EC50 of 2410 nM. Work on `CC(C)(CO)Cc1cc(C(C)(C)C)c(O)c(C(C)(C)C)c1` [compound 58, 2,6-ditert-butyl-4-(3-hydroxy-2,2-dimethylpropyl)phenol] yielded an EC50 of 350 nM.

Same assay, conditions: RAG01 cell line; 72 hours incubation; CellTiter-Glo; percentage effect normalized to vehicle control; 10-point CRC from 10 μM; read-out: EC50
Molecule `NC[C@@H]1O[C@H](C23CC4CC(CC(C4)C2)C3)Cc2c1ccc(O)c2O` [compound 39, A77636] has an EC50 of 652 nM.
